Assay results as given in ChEMBL document CHEMBL1201862, “PubChem BioAssay data set” (2004).
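All cell lines were grown in 96-well plates and treated with compound for 48 hours. Here, GI50 denotes the concentration required for 50% inhibition of growth.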 Activity calls are given as the source filed them. Cut-off read from the data, not from the text of the source: active = GI50 up to about 1.1 µM and inactive = higher.

Columns and labels:
Test in all cases: NCI anticancer screen, dose series, 48 h
[1] = tested on: ACHN
[2] = tested on: SNB-78
[3] = tested on: HCT-15
[4] = tested on: OVCAR-4
[5] = tested on: HOP-18
[6] = tested on: HL-60
[7] = tested on: KM12
[8] = tested on: A549
[9] = tested on: KM-20L2
[10] = tested on: RPMI-8226
[11] = tested on: SK-OV-3
[12] = tested on: SK-MEL-5
[13] = tested on: NCI-H23
[14] = tested on: NCI-H226
[15] = tested on: LXFL 529
[16] = tested on: SK-MEL-28
[17] = tested on: UO-31
[18] = tested on: CCRF-CEM
[19] = tested on: SF-268
[20] = tested on: OVCAR-5
[21] = tested on: Malme-3M
[22] = tested on: OVCAR-8
[23] = tested on: HCC 2998
[24] = tested on: TK-10
[25] = tested on: M14
[26] = tested on: COLO 205
[27] = tested on: UACC-257
[28] = tested on: SR
[29] = tested on: SK-MEL-2
[30] = tested on: XF498
[31] = tested on: RXF 393
[32] = tested on: SF-539
[33] = tested on: UACC-62
[34] = tested on: MOLT-4
[35] = tested on: DMS-273
[36] = tested on: HOP-62
[37] = tested on: DLD-1
[38] = tested on: OVCAR-3
[39] = tested on: IGROV-1
[40] = tested on: DMS-114
[41] = tested on: SNB-75
[42] = tested on: NCI-H460
[43] = tested on: SF-295
[44] = tested on: SN12C
[45] = tested on: 786-0
[46] = tested on: CAKI-1
[47] = tested on: HOP-92
[48] = tested on: NCI-H522
[49] = tested on: HT-29
[50] = tested on: EKVX
[51] = tested on: HCT-116
[52] = tested on: SNB-19
[53] = tested on: A498
[54] = tested on: SW-620
[55] = tested on: LOX IMVI
[56] = tested on: K562
[57] = tested on: M19-MEL
[58] = tested on: U-251

Compound: CCn1c2c(c3ccccc31)[C@@H](c1ccc(Cl)cc1)CC1C(=O)N(c3ccccc3)C(=O)C21 (stereo not given in full)
- GI50 [1]: 58.6 µM (inactive)
- GI50 [2]: 26.4 µM (inactive)
- GI50 [3]: > 100 µM
- GI50 [4]: > 100 µM (inactive)
- GI50 [5]: > 100 µM (inactive)
- GI50 [6]: 16.4 µM (inactive)
- GI50 [7]: > 100 µM (inactive)
- GI50 [8]: > 100 µM (inactive)
- GI50 [9]: > 100 µM (inactive)
- GI50 [10]: 65 µM (inactive)
- GI50 [11]: > 100 µM (inactive)
- GI50 [12]: > 100 µM (inactive)
- GI50 [13]: 95.3 µM (inactive)
- GI50 [14]: 45.6 µM (inactive)
- GI50 [15]: > 100 µM (inactive)
- GI50 [16]: > 100 µM (inactive)
- GI50 [17]: > 100 µM (inactive)
- GI50 [18]: 63.2 µM (inactive)
- GI50 [19]: 77.8 µM (inactive)
- GI50 [20]: > 100 µM (inactive)
- GI50 [21]: 70.6 µM (inactive)
- GI50 [22]: > 100 µM (inactive)
- GI50 [23]: 86.9 µM (inactive)
- GI50 [24]: > 100 µM (inactive)
- GI50 [25]: > 100 µM (inactive)
- GI50 [26]: > 100 µM (inactive)
- GI50 [27]: > 100 µM (inactive)
- GI50 [28]: 12.8 µM (inactive)
- GI50 [29]: 91.8 µM (inactive)
- GI50 [30]: 64.6 µM (inactive)
- GI50 [31]: 38 µM (inactive)
- GI50 [32]: 31.8 µM (inactive)
- GI50 [33]: 51.2 µM (inactive)
- GI50 [34]: 42.7 µM (inactive)
- GI50 [35]: > 100 µM (inactive)
- GI50 [36]: 85.5 µM (inactive)
- GI50 [37]: > 100 µM (inactive)
- GI50 [38]: 55 µM (inactive)
- GI50 [39]: > 100 µM (inactive)
- GI50 [40]: 46.8 µM (inactive)
- GI50 [41]: 71.9 µM (inactive)
- GI50 [42]: 67.1 µM (inactive)
- GI50 [43]: 59.3 µM (inactive)
- GI50 [44]: 75.5 µM (inactive)
- GI50 [45]: > 100 µM (inactive)
- GI50 [46]: > 100 µM (inactive)
- GI50 [47]: 27.7 µM (inactive)
- GI50 [48]: 80.2 µM (inactive)
- GI50 [49]: 65.5 µM (inactive)
- GI50 [50]: > 100 µM (inactive)
- GI50 [51]: 37.6 µM (inactive)
- GI50 [52]: > 100 µM (inactive)
- GI50 [53]: 69.7 µM (inactive)
- GI50 [54]: > 100 µM (inactive)
- GI50 [55]: > 100 µM (inactive)
- GI50 [56]: 77.3 µM (inactive)
- GI50 [57]: > 100 µM (inactive)
- GI50 [58]: 52.6 µM (inactive)

Compound: Cc1ccc([N+](=O)[O-])cc1NC(=O)/C(=N/NC(=S)NN)C1SC(=S)NC1=O (stereo not given)
- GI50 [1]: > 100 µM (inactive)
- GI50 [2]: > 100 µM (inactive)
- GI50 [3]: > 100 µM
- GI50 [4]: > 100 µM (inactive)
- GI50 [5]: > 100 µM (inactive)
- GI50 [6]: 78.3 µM (inactive)
- GI50 [7]: > 100 µM (inactive)
- GI50 [8]: > 100 µM (inactive)
- GI50 [9]: > 100 µM (inactive)
- GI50 [10]: > 100 µM (inactive)
- GI50 [11]: > 100 µM (inactive)
- GI50 [12]: > 100 µM (inactive)
- GI50 [13]: > 100 µM (inactive)
- GI50 [14]: > 100 µM (inactive)
- GI50 [15]: > 100 µM (inactive)
- GI50 [16]: > 100 µM (inactive)
- GI50 [17]: > 100 µM (inactive)
- GI50 [18]: 40.2 µM (inactive)
- GI50 [19]: > 100 µM (inactive)
- GI50 [20]: > 100 µM (inactive)
- GI50 [21]: > 100 µM (inactive)
- GI50 [22]: > 100 µM (inactive)
- GI50 [24]: > 100 µM (inactive)
- GI50 [25]: > 100 µM (inactive)
- GI50 [26]: > 100 µM (inactive)
- GI50 [27]: > 100 µM (inactive)
- GI50 [28]: > 100 µM (inactive)
- GI50 [29]: > 100 µM (inactive)
- GI50 [30]: > 100 µM (inactive)
- GI50 [31]: > 100 µM (inactive)
- GI50 [32]: > 100 µM (inactive)
- GI50 [33]: > 100 µM (inactive)
- GI50 [34]: 78.9 µM (inactive)
- GI50 [35]: > 100 µM (inactive)
- GI50 [36]: > 100 µM (inactive)
- GI50 [37]: > 100 µM (inactive)
- GI50 [39]: > 100 µM (inactive)
- GI50 [40]: > 100 µM (inactive)
- GI50 [41]: > 100 µM (inactive)
- GI50 [42]: > 100 µM (inactive)
- GI50 [43]: > 100 µM (inactive)
- GI50 [44]: > 100 µM (inactive)
- GI50 [45]: > 100 µM (inactive)
- GI50 [46]: > 100 µM (inactive)
- GI50 [47]: > 100 µM (inactive)
- GI50 [48]: > 100 µM (inactive)
- GI50 [49]: > 100 µM (inactive)
- GI50 [50]: > 100 µM (inactive)
- GI50 [51]: > 100 µM (inactive)
- GI50 [52]: > 100 µM (inactive)
- GI50 [53]: > 100 µM (inactive)
- GI50 [54]: > 100 µM (inactive)
- GI50 [55]: > 100 µM (inactive)
- GI50 [56]: > 100 µM (inactive)
- GI50 [58]: > 100 µM (inactive)

Compound: COc1cc(Br)c(CC2(C#N)c3ccccc3C3C(N2C(=O)c2ccccc2)C3(Cl)Cl)cc1OC (stereo not given)
- GI50 [1]: > 65.5 µM (inactive)
- GI50 [2]: > 65.5 µM (inactive)
- GI50 [3]: > 65.5 µM
- GI50 [5]: > 65.5 µM (inactive)
- GI50 [6]: 1.51 µM (inactive)
- GI50 [7]: 23.1 µM (inactive)
- GI50 [8]: > 65.5 µM (inactive)
- GI50 [9]: > 65.5 µM (inactive)
- GI50 [10]: 0.935 µM (active)
- GI50 [11]: > 65.5 µM (inactive)
- GI50 [12]: 2.94 µM (inactive)
- GI50 [13]: > 65.5 µM (inactive)
- GI50 [14]: > 65.5 µM (inactive)
- GI50 [15]: 4.01 µM (inactive)
- GI50 [16]: > 65.5 µM (inactive)
- GI50 [17]: 50.6 µM (inactive)
- GI50 [18]: > 65.5 µM (inactive)
- GI50 [19]: > 65.5 µM (inactive)
- GI50 [20]: > 65.5 µM (inactive)
- GI50 [21]: > 65.5 µM (inactive)
- GI50 [22]: > 65.5 µM (inactive)
- GI50 [23]: 20.9 µM (inactive)
- GI50 [24]: > 65.5 µM (inactive)
- GI50 [25]: 42.4 µM (inactive)
- GI50 [26]: 10.4 µM (inactive)
- GI50 [27]: 15.8 µM (inactive)
- GI50 [28]: 4.01 µM (inactive)
- GI50 [29]: > 65.5 µM (inactive)
- GI50 [30]: > 65.5 µM (inactive)
- GI50 [31]: > 65.5 µM (inactive)
- GI50 [32]: 48 µM (inactive)
- GI50 [33]: 33.5 µM (inactive)
- GI50 [34]: 2.03 µM (inactive)
- GI50 [35]: 2.69 µM (inactive)
- GI50 [37]: 19.3 µM (inactive)
- GI50 [38]: 15.1 µM (inactive)
- GI50 [39]: > 65.5 µM (inactive)
- GI50 [40]: 16.3 µM (inactive)
- GI50 [41]: > 65.5 µM (inactive)
- GI50 [42]: 4.83 µM (inactive)
- GI50 [44]: > 65.5 µM (inactive)
- GI50 [45]: > 65.5 µM (inactive)
- GI50 [47]: > 65.5 µM (inactive)
- GI50 [48]: 3.52 µM (inactive)
- GI50 [49]: > 65.5 µM (inactive)
- GI50 [50]: > 65.5 µM (inactive)
- GI50 [51]: > 65.5 µM (inactive)
- GI50 [52]: > 65.5 µM (inactive)
- GI50 [54]: > 65.5 µM (inactive)
- GI50 [55]: > 65.5 µM (inactive)
- GI50 [56]: 5.7 µM (inactive)
- GI50 [58]: 39.4 µM (inactive)
